According to ChEMBL document CHEMBL1201862, “PubChem BioAssay data set” (2004):
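Five concentrations, 48 hours, 96-well plates. The concentration for 50% growth inhibition is given as GI50.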 Calls of active or inactive are those of the source. Cut-off read from the data, not from the text of the source: active = GI50 up to about 1.1 µM and inactive = higher.

Key:
Test in all cases: inhibition of tumour cell growth, NCI panel, 48 h
[1] = system: SK-OV-3
[2] = system: Hs-578T
[3] = system: OVCAR-8
[4] = system: CAKI-1
[5] = system: UO-31
[6] = system: ACHN
[7] = system: RXF 393
[8] = system: KM12
[9] = system: U-251
[10] = system: M14
[11] = system: SR
[12] = system: OVCAR-4
[13] = system: MDA-MB-435
[14] = system: MDA-N
[15] = system: SN12C
[16] = system: MOLT-4
[17] = system: SK-MEL-2
[18] = system: OVCAR-5
[19] = system: COLO 205

| Compound | GI50 [1] | GI50 [2] | GI50 [3] | GI50 [4] | GI50 [5] | GI50 [6] | GI50 [7] | GI50 [8] | GI50 [9] | GI50 [10] | GI50 [11] | GI50 [12] | GI50 [13] | GI50 [14] | GI50 [15] | GI50 [16] | GI50 [17] | GI50 [18] | GI50 [19] |
| --- | --- | --- | --- | --- | --- | --- | --- | --- | --- | --- | --- | --- | --- | --- | --- | --- | --- | --- | --- |
| CN1CCC/C1=C1\C(=O)c2cccn2C1=O | > 100 µM (inactive) | > 100 µM (inactive) | > 100 µM (inactive) | > 100 µM (inactive) | > 100 µM (inactive) | > 100 µM (inactive) | > 100 µM (inactive) | > 100 µM (inactive) | > 100 µM (inactive) | > 100 µM (inactive) | > 100 µM (inactive) | > 100 µM (inactive) | > 100 µM (inactive) | > 100 µM (inactive) | > 100 µM (inactive) | > 100 µM (inactive) | > 100 µM (inactive) | > 100 µM (inactive) | > 100 µM (inactive) |
| O=C(O)C1(CC(CCCN2CCCCC2)c2ccccc2)CCCC1 (stereo not given) | > 100 µM (inactive) | > 100 µM (inactive) | > 100 µM (inactive) | > 100 µM (inactive) | > 100 µM (inactive) | > 100 µM (inactive) | > 100 µM (inactive) | > 100 µM (inactive) | > 100 µM (inactive) | > 100 µM (inactive) | > 100 µM (inactive) | > 100 µM (inactive) | > 100 µM (inactive) | > 100 µM (inactive) | > 100 µM (inactive) | > 100 µM (inactive) | > 100 µM (inactive) | > 100 µM (inactive) | > 100 µM (inactive) |
| Cc1ccc(C(C)C)c(OCC(=O)N/N=C/c2c[nH]c3ccc(Br)cc23)c1 | 2.58 µM (inactive) | 4.82 µM (inactive) | 3.95 µM (inactive) | 2.55 µM (inactive) | 3.49 µM (inactive) | 4.85 µM (inactive) | 1.37 µM (inactive) | 1.41 µM (inactive) | 3.11 µM (inactive) | 1.98 µM (inactive) | 0.698 µM (active) | 3 µM (inactive) | 0.904 µM (active) | 0.923 µM (active) | 3.27 µM (inactive) | 3.3 µM (inactive) | 2.44 µM (inactive) | 5.11 µM (inactive) | 1.69 µM (inactive) |
| CCCNC(=O)CCC(C)C1CCC2C3C(C[C@H](OC(C)=O)[C@]12C)[C@@]1(C)CCC2(C[C@H]1C[C@H]3OC(C)=O)OOC1(CC[C@]3(C)C4C[C@H](OC(C)=O)[C@]5(C)C(C(C)CCC(=O)NCCC)CCC5C4[C@H](OC(C)=O)C[C@@H]3C1)OO2 (stereo not given in full) | 55.5 µM (inactive) | 19 µM (inactive) | 23.8 µM (inactive) | 46.5 µM (inactive) | 0.101 µM (active) | 4.37 µM (inactive) | > 100 µM (inactive) | > 100 µM (inactive) | > 100 µM (inactive) | 25.6 µM (inactive) | > 100 µM (inactive) | > 100 µM (inactive) | > 100 µM (inactive) | > 100 µM (inactive) | > 100 µM (inactive) | > 100 µM (inactive) | > 100 µM (inactive) | 46.5 µM (inactive) | > 100 µM (inactive) |
| O=[N+]([O-])c1cc(C2(N3CCCCC3)CCCCC2)sc1Br | 16.3 µM (inactive) | 7.05 µM (inactive) | 6.31 µM (inactive) | 6 µM (inactive) | 12.1 µM (inactive) | 3.98 µM (inactive) | 3.66 µM (inactive) | 6.49 µM (inactive) | 6.01 µM (inactive) | 7.69 µM (inactive) | 2.99 µM (inactive) | 13 µM (inactive) | 4.78 µM (inactive) | 6.41 µM (inactive) | 5.15 µM (inactive) | 1.8 µM (inactive) | 7.06 µM (inactive) | 19.5 µM (inactive) | 3.82 µM (inactive) |
| COCCOC1=C(Cl)C(=O)c2c(O)ccc(O)c2C1=O | 16.8 µM (inactive) | 3.24 µM (inactive) | 1.63 µM (inactive) | 0.438 µM (active) | 1.71 µM (inactive) | 1.11 µM (active) | 0.798 µM (active) | 9.48 µM (inactive) | 4.75 µM (inactive) | 1.71 µM (inactive) | 0.78 µM (active) | 1.94 µM (inactive) | 1.02 µM (active) | 1.34 µM (inactive) | 1.92 µM (inactive) | 0.105 µM (active) | 5.98 µM (inactive) | 6.93 µM (inactive) | 0.838 µM (active) |
| CN(C)CCNC(=O)c1c(O)ccc2c1c1c(n2CCc2ccccc2)C(=O)c2ccccc2C1=O | 16.4 µM (inactive) | 9.73 µM (inactive) | 8.36 µM (inactive) | 7.08 µM (inactive) | 5.26 µM (inactive) | 9.18 µM (inactive) | 0.302 µM (active) | 4.15 µM (inactive) | 4.4 µM (inactive) | 1.93 µM (inactive) | 2.58 µM (inactive) | 11.6 µM (inactive) | 2.17 µM (inactive) | 2.25 µM (inactive) | 6.56 µM (inactive) | 4.42 µM (inactive) | 5.87 µM (inactive) | 15.5 µM (inactive) | 15.8 µM (inactive) |
| CN1CCN2CCN(C)CCN(CC1)CC2 | > 100 µM (inactive) | > 100 µM (inactive) | > 100 µM (inactive) | > 100 µM (inactive) | > 100 µM (inactive) | > 100 µM (inactive) | > 100 µM (inactive) | > 100 µM (inactive) | > 100 µM (inactive) | > 100 µM (inactive) | > 100 µM (inactive) | > 100 µM (inactive) | > 100 µM (inactive) | > 100 µM (inactive) | > 100 µM (inactive) | > 100 µM (inactive) | > 100 µM (inactive) | > 100 µM (inactive) | > 100 µM (inactive) |
| c1ccc(N/N=C2\CC(c3ccccc3)Oc3ccccc32)cc1 (stereo not given) | > 100 µM (inactive) | 36.5 µM (inactive) | 39.6 µM (inactive) | 50.2 µM (inactive) | 22.1 µM (inactive) | 43.5 µM (inactive) | 31.6 µM (inactive) | 32.4 µM (inactive) | 33.8 µM (inactive) | 42.6 µM (inactive) | 42.1 µM (inactive) | 46.2 µM (inactive) | 27.5 µM (inactive) | 31.5 µM (inactive) | 36.2 µM (inactive) | 28.4 µM (inactive) | 65.3 µM (inactive) | 46.1 µM (inactive) | 67.8 µM (inactive) |
| C=CCn1c(N)c(C#N)c(C#N)c1CCC | > 100 µM (inactive) | > 100 µM (inactive) | > 100 µM (inactive) | > 100 µM (inactive) | > 100 µM (inactive) | > 100 µM (inactive) | > 100 µM (inactive) | > 100 µM (inactive) | > 100 µM (inactive) | > 100 µM (inactive) | 22.5 µM (inactive) | > 100 µM (inactive) | > 100 µM (inactive) | > 100 µM (inactive) | > 100 µM (inactive) | 43.2 µM (inactive) | > 100 µM (inactive) | > 100 µM (inactive) | > 100 µM (inactive) |
